The text below walks through data of article PMC3760392 (Bioorganic & medicinal chemistry, 2013).

Experiment [1] has as its system D3 than D2 receptor. Conditions: cited from earlier work.
Experiment [2] concerns the target rD3 receptor (Rattus norvegicus, UniProt P19020).
The target of experiment [3] is rD2L receptor (Rattus norvegicus, UniProt P61169). The note with it: read-out: Ki (nM), rD2L [3H]spiperone; HEK293 cells, mean ± SEM.
rD2L receptor, sequence (P61169 whole entry): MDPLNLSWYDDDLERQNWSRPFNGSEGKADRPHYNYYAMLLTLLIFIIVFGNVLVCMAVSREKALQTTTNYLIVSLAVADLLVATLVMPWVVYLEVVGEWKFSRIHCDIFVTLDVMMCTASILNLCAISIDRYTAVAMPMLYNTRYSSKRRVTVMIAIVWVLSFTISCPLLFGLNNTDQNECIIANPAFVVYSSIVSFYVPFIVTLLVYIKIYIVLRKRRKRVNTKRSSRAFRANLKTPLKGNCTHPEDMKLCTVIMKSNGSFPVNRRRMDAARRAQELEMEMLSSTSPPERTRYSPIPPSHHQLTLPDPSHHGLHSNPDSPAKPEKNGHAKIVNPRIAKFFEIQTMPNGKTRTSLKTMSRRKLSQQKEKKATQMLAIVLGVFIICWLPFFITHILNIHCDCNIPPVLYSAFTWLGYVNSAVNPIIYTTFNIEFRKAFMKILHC

rD3 receptor, sequence (P19020 whole entry): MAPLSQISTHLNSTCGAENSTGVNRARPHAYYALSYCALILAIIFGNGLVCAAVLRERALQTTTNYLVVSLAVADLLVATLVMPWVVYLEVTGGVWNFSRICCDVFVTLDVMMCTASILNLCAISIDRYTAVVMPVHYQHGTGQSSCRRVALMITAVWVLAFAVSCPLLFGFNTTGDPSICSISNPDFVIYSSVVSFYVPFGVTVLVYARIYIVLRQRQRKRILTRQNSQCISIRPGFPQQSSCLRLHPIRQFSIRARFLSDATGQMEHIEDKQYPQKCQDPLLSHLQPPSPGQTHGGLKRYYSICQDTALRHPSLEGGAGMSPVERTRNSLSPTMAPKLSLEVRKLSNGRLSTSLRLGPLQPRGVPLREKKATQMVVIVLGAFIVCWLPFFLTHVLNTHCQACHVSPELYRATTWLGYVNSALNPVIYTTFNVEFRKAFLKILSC

As to `CCCN[C@H]1CCc2nc(N)sc2C1` [pramipexole], in experiment [1], the “fold higher affinity for the D3 than D2 receptor” value is listed as 4- to 10 fold.

For the molecule “N^6-(2-(4-Phenylpiperazin-1-yl)ethyl)-N^6-propyl-5,6,7,8-tetrahydro-1H-naphtho[2,3-d]imidazole-2,6-diamine [Compound 10e]”, the D2L/D3 in experiment [2] (ratio of Ki rD2L / Ki rD3) is reported as 8.89. For the same molecule, the Ki came out at 1790 nM in experiment [2] (read-out: Ki (nM), rD3 [3H]spiperone, HEK293 cells, mean ± SEM) and 15900 nM in experiment [3].
